Measured values from ChEMBL document CHEMBL1201862, “PubChem BioAssay data set” (2004).
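Step 1: Grow cells in 96-well plates. Step 2: Expose to compound for 48 hours at 5 concentrations. Step 3: Interpolate endpoints linearly; if unreached, use highest concentration. GI50 marks 50% less growth.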 Activity calls are given as the source filed them. No stated cut-off is given here; in the data, active = GI50 up to about 1.1 µM and inactive = higher.

Columns and labels:
Test in all cases: inhibition of tumour cell growth, NCI panel, 48 h
IGROV-1 = test system: IGROV-1
Malme-3M = test system: Malme-3M
HOP-62 = test system: HOP-62
HT-29 = test system: HT-29
HCC 2998 = test system: HCC 2998
COLO 205 = test system: COLO 205
A549 = test system: A549
SF-539 = test system: SF-539
RXF 393 = test system: RXF 393
UACC-257 = test system: UACC-257
LXFL 529 = test system: LXFL 529
CAKI-1 = test system: CAKI-1
NCI-H226 = test system: NCI-H226
HCT-15 = test system: HCT-15
ACHN = test system: ACHN
KM12 = test system: KM12
EKVX = test system: EKVX
MDA-N = test system: MDA-N

Row | Compound | GI50 (IGROV-1) | GI50 (Malme-3M) | GI50 (HOP-62) | GI50 (HT-29) | GI50 (HCC 2998) | GI50 (COLO 205) | GI50 (A549) | GI50 (SF-539) | GI50 (RXF 393) | GI50 (UACC-257) | GI50 (LXFL 529) | GI50 (CAKI-1) | GI50 (NCI-H226) | GI50 (HCT-15) | GI50 (ACHN) | GI50 (KM12) | GI50 (EKVX) | GI50 (MDA-N)
1 | C/C(=N/Nc1ccc([N+](=O)[O-])cc1[N+](=O)[O-])C(CC(C(=O)NCc1ccccc1)/C(C)=N\Nc1ccc([N+](=O)[O-])cc1[N+](=O)[O-])C(=O)NCc1ccccc1 (centres undefined) | 13.7 µM (inactive) | 12.2 µM (inactive) | 3.88 µM (inactive) | 6.14 µM (inactive) | 13.2 µM (inactive) | 13.5 µM (inactive) | 4.4 µM (inactive) | 4.06 µM (inactive) | 4.24 µM (inactive) | 5.21 µM (inactive) | 10.9 µM (inactive) | 7.03 µM (inactive) | 11.2 µM (inactive) | 10.3 µM | 5.46 µM (inactive) | 4.86 µM (inactive) | 12.7 µM (inactive) | –
2 | COC(=O)C(=O)C(C(=O)C=C(C)C)C(=O)C(=O)Nc1cccc(C(C)=O)c1 (centres undefined) | > 100 µM (inactive) | > 100 µM (inactive) | > 100 µM (inactive) | > 100 µM (inactive) | > 100 µM (inactive) | > 100 µM (inactive) | > 100 µM (inactive) | > 100 µM (inactive) | > 100 µM (inactive) | > 100 µM (inactive) | > 100 µM (inactive) | > 100 µM (inactive) | > 100 µM (inactive) | > 100 µM | > 100 µM (inactive) | > 100 µM (inactive) | > 100 µM (inactive) | –
3 | CN(C)C(=N)NC(=S)N(C)C | > 100 µM (inactive) | > 100 µM (inactive) | > 100 µM (inactive) | > 100 µM (inactive) | > 100 µM (inactive) | – | > 100 µM (inactive) | > 100 µM (inactive) | > 100 µM (inactive) | > 100 µM (inactive) | > 100 µM (inactive) | > 100 µM (inactive) | 17.2 µM (inactive) | > 100 µM | > 100 µM (inactive) | > 100 µM (inactive) | > 100 µM (inactive) | –
4 | Nc1nc(-c2ccccc2)c(Cl)c(-c2cc(Cl)ccc2O)n1 | 19.4 µM (inactive) | > 77.1 µM (inactive) | 14.9 µM (inactive) | 49.2 µM (inactive) | > 81.1 µM (inactive) | > 100 µM (inactive) | 19.5 µM (inactive) | 25.1 µM (inactive) | 13.8 µM (inactive) | > 100 µM (inactive) | 25.9 µM (inactive) | 20.5 µM (inactive) | 24.7 µM (inactive) | 18.4 µM | 8.89 µM (inactive) | 16.7 µM (inactive) | 28.1 µM (inactive) | > 100 µM (inactive)
5 | Cc1cc(C)nc(NS(=O)(=O)c2ccc(NC(=O)COC(=O)c3cccc4c(=O)c5ccccc5[nH]c34)cc2)n1 | 43.5 µM (inactive) | 26.7 µM (inactive) | 23.7 µM (inactive) | 33 µM (inactive) | 21.1 µM (inactive) | 48.8 µM (inactive) | > 100 µM (inactive) | 19.5 µM (inactive) | 36.5 µM (inactive) | 27.1 µM (inactive) | 39.8 µM (inactive) | > 100 µM (inactive) | 53.3 µM (inactive) | > 100 µM | 47.5 µM (inactive) | 19.3 µM (inactive) | 54.2 µM (inactive) | –
6 | CCOC(=O)[C@H]1Nc2ccc(C)cc2C2c3ccccc3CC21 (some centres undefined) | > 100 µM (inactive) | > 100 µM (inactive) | > 100 µM (inactive) | > 100 µM (inactive) | > 100 µM (inactive) | > 100 µM (inactive) | > 100 µM (inactive) | > 100 µM (inactive) | 31.6 µM (inactive) | 30.6 µM (inactive) | > 100 µM (inactive) | > 100 µM (inactive) | > 100 µM (inactive) | > 100 µM | > 100 µM (inactive) | > 100 µM (inactive) | > 100 µM (inactive) | –
7 | N#COc1ccc(Oc2ccc(OC#N)cc2)cc1 | > 100 µM (inactive) | > 100 µM (inactive) | > 100 µM (inactive) | 70.6 µM (inactive) | > 100 µM (inactive) | 22.4 µM (inactive) | > 100 µM (inactive) | 43.5 µM (inactive) | > 100 µM (inactive) | > 100 µM (inactive) | > 100 µM (inactive) | > 100 µM (inactive) | > 100 µM (inactive) | 42.8 µM | 35.5 µM (inactive) | > 100 µM (inactive) | > 100 µM (inactive) | –
